Patent publication US20250040548A1, “Herbicidal compositions comprising saflufenacil” (BASF SF, priority 2023, published 2025)

Experiments:
BIDPI = experiment: Post-emergence application in field trials (Examples 2 and 3); type: in vivo, Bidens pilosa; details: 21 DAT, growth stage 12-16, height 5-10 cm, 0.5% MSO
Protocol: (§1) In the examples below, using the method of S. R. Colby (1967) “Calculating synergistic and antagonistic responses of herbicide combinations”, Weeds 15, p. 22ff., the value E, which is expected if the activity of the individual active compounds is only additive, was calculated.
(§2) [formula] • where • X=percent activity using active herbicide A at an application rate a; • Y=percent activity using active saflufenacil at an application rate b; • E=expected activity (in %) by A+B at application rates a+b.
(§3) If the value found experimentally is higher than the value E calculated according to Colby, a synergistic effect is present.
(§4) On field test sites, natural weed infestation or seeded weeds were treated post-emergence of the weeds.
(§5) For the post emergence treatment, the weedy plants were treated as indicated below. The herbicidal compositions were, together with the adjuvant(s) as indicated, suspended or emulsified in water (200 l/ha unless indicated otherwise) as distribution medium and sprayed with commercial flat fan nozzles.
(§6) In the following experiments, the herbicidal activity for the individual herbicidal compositions (solo and mixture applications) was assessed the indicated days after treatment (DAT). The assessments for the damage on undesired weeds caused by the composition was carried out using a scale from 0 to 100%, compared to the untreated control plants. […]

LOLRI = experiment: as above; type: in vivo, Lolium rigidum; details: 14 DAT, 1% v/ MSO
Protocol: as §1, §2, §3, §4, §5, §6

[1] = test system: SORVU* (non-PPOi herbicide tolerant); experiment: as above; type: in vivo, Sorghum vulgare
Protocol: as §1, §2, §3, §4, §5
(§7) In the following experiments, the herbicidal activity for the individual herbicidal compositions (solo and mixture applications) was assessed the indicated days after treatment (DAT). The assessments for the damage on undesired weeds caused by the composition was carried out using a scale from 0 to 100%, compared to the untreated control plants. Here, 0 means no damage and 100 means complete destruction of the plants.
as §5, with “I/ha” for “l/ha”

ECHCG = experiment: Post-emergence application in greenhouse trials; type: in vivo, Echinocloa crus-galli; details: growth stage 13, saflufenacil as commercial 342 g/l SC formulation
Protocol: as §1, §2, §3
The culture containers used were plastic pots containing loamy sand with approximately 3.0% of humus as substrate. The seeds of the test plants were sown separately for each species.
For the post-emergence treatment, the test plants were grown to a plant height of from 3 to 15 cm, depending on the plant habit, and only then treated with the active compounds which had been suspended or emulsified in water. To this end, the test plants were either sown directly, and grown in the same containers, or they were first grown separately as seedlings and transplanted into the test containers a few days prior to treatment.
Depending on the species, the plants were kept at 10-25° C. and 20-35° C., respectively.
The test period extended over 2 to 4 weeks. During this time, the plants were tended and their response to the individual treatments was evaluated.
Evaluation was carried out using a scale from 0 to 100. 100 means no emergence of the plants, or complete destruction of at least the above-ground parts, and 0 means no damage or normal course of growth. A good herbicidal activity is given at values of at least 70, and very good herbicidal activity is given at values of at least 85.
Unless indicated otherwise, herbicide A and saflufenacil were formulated (50 g/I) and applied with addition of 1% MSO (methylated seed oil) as adjuvant. In the greenhouse trials, the solvent used was water (200 I/ha).

ERICA = experiment: Post-emergence application in field trials (Examples 2 and 3); type: in vivo, Erigeron canadensis; details: 21 DAT
Protocol: as §1, §2, §3, §4, §5, §7
as §5, with “I/ha” for “l/ha”

SMILES | % Herbicidal activity (BIDPI; B-1 25 g ai/ha) [%] | % Herbicidal activity (LOLRI; growth stage 12-22, B-1 solo 25 g ai/ha) [%] | % Herbicidal activity ([1]; B-1 25 g ai/ha, 25 DAT, growth stage 14-15, field, 0.25 l/ha Dash MSO Max ®) [%] | % Herbicidal activity ([1]; SORVU* (non-PPOi herbicide tolerant), height 21-31 cm, B-1 solo 25 g ai/ha, 22 DAT, 1% v/v MSO) [%] | % Herbicidal activity (ECHCG; B-1 3.12 g ai/ha, 7 DAT) [%] | % Herbicidal activity (ECHCG; B-1 3.12 g ai/ha, 21 DAT) [%] | % Herbicidal activity (ERICA; B-1 6.25 g ai/ha, height 12.5-25 cm, field, 140 l/ha water, 1% MSO + 2.5% ammoniumsulfate) [%] | % Herbicidal activity (ERICA; B-1 12.5 g ai/ha, height 12.5-25 cm, field, 140 l/ha water, 1% MSO + 2.5% ammoniumsulfate) [%] | % Herbicidal activity (ERICA; ERICA, height 5-10 cm, B-1 solo 25 g ai/ha, 1% v/v MSO and 1% AMS (ammonium sulfate)) [%] | % Herbicidal activity (BIDPI; A-1 25 g ai/ha) [%] | % Herbicidal activity (LOLRI; growth stage 12-22, A-1 solo 25 g ai/ha) [%] | % Herbicidal activity ([1]; A-1 50 g ai/ha, 25 DAT, growth stage 14-15, field, 0.25 l/ha Dash MSO Max ®) [%] | % Herbicidal activity ([1]; SORVU* (non-PPOi herbicide tolerant), height 21-31 cm, A-1 solo 30 g ai/ha, 22 DAT, 1% v/v MSO) [%] | % Herbicidal activity (ECHCG; A-1 1.56 g ai/ha, 7 DAT) [%] | % Herbicidal activity (ECHCG; A-1 1.56 g ai/ha, 21 DAT) [%] | % Herbicidal activity (ERICA; A-1 6.25 g ai/ha, height 12.5-25 cm, field, 140 l/ha water, 1% MSO + 2.5% ammoniumsulfate) [%] | % Herbicidal activity (ERICA; A-1 12.5 g ai/ha, height 12.5-25 cm, field, 140 l/ha water, 1% MSO + 2.5% ammoniumsulfate) [%] | % Herbicidal activity (ERICA; ERICA, height 5-10 cm, A-1 solo 25 g ai/ha, 1% v/v MSO and 1% AMS (ammonium sulfate)) [%]
CC(C)N(C)S(=O)(=O)NC(=O)c1cc(-n2c(=O)cc(C(F)(F)F)n(C)c2=O)c(F)cc1Cl [B-1, saflufenacil] | 5 | 20 | 3 | 13 | 65 | 40 | 40 | 73 | 90 | – | – | – | – | – | – | – | – | –
CCOC(=O)COc1ccccc1Oc1nc(-n2c(=O)cc(C(F)(F)F)n(C)c2=O)c(F)cc1Cl [A-1, ethyl 2-[2-[[3-chloro-5-fluoro-6-[3-methyl-2,6-dioxo-4-(trifluoromethyl)pyrimidin-1-yl]-2-pyridyl]oxy]phenoxy]acetate] | – | – | – | – | – | – | – | – | – | 94 | 85 | 93 | 96 | 70 | 55 | 7 | 17 | 60
